Measurements: ChEMBL document CHEMBL4808171, “Structure-Activity Relationship Study and Biological Evaluation of 2-(Disubstituted phenyl)-indole-5-propanoic Acid Derivatives as GPR40 Full Agonists” (J Med Chem, 2021)
The source made the active and inactive calls. The calls are words filed in the database; no cut-off is given here.

What was measured:
[1] = Clast in CD-1 mouse at 90 mg/kg, po measured up to 8 hrs by LC-MS/MS analysis; type: ADME, organism-based; details: in vivo, read-out: Clast
[2] = system: MIN6; test: Cytotoxicity in mouse MIN6 cells assessed as caspase 3/7 activity at 100 uM incubated for 72 hrs by fluorescence assay; type: cell-based; details: min6, 72 h
[3] = Tmax in CD-1 mouse at 30 mg/kg, po measured up to 8 hrs by LC-MS/MS analysis; type: ADME, organism-based; details: in vivo
[4] = target: T1, Free fatty acid receptor 2 (Homo sapiens, UniProt O15552); test: Agonist activity at FFAR2 (unknown origin); type: functional
T1 sequence (O15552 whole entry): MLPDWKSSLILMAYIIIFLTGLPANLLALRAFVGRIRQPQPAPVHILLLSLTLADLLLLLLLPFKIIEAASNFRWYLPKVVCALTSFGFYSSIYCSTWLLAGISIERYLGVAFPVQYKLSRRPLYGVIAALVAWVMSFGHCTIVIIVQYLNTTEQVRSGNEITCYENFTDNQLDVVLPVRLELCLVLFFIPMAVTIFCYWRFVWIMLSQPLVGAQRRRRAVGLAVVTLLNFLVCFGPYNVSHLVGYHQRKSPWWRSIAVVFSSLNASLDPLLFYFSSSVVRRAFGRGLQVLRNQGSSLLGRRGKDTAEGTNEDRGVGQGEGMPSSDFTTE

[5] = Solubility of the compound in FaSSIF at 27 degC measured after 24 hrs; type: physicochemical; details: simulated gi fluid
[6] = MRTlast in CD-1 mouse at 30 mg/kg, po measured up to 8 hrs by LC-MS/MS analysis; type: ADME, organism-based; details: in vivo
[7] = Metabolic stability in human liver microsomes assessed as intrinsic clearance; type: ADME, Microsome; details: read-out: CLH
[8] = target: T2, Free fatty acid receptor 3 (Homo sapiens, UniProt O14843); test: Agonist activity at FFAR3 (unknown origin); type: functional
T2 sequence (O14843 whole entry): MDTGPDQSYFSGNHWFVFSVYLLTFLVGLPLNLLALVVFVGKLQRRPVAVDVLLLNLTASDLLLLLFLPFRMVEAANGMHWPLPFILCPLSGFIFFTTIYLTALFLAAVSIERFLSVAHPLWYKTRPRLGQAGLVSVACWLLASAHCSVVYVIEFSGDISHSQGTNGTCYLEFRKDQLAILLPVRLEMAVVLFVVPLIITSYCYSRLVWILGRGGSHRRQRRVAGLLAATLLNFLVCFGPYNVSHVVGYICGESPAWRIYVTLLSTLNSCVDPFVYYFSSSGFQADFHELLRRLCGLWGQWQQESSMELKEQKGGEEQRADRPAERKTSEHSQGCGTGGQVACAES

[9] = Tlast in CD-1 mouse at 90 mg/kg, po measured up to 8 hrs by LC-MS/MS analysis; type: ADME, organism-based; details: in vivo
[10] = Metabolic stability in mouse liver microsomes assessed as intrinsic clearance; type: ADME, Microsome; details: read-out: CLH
[11] = Clast in CD-1 mouse at 30 mg/kg, po measured up to 8 hrs by LC-MS/MS analysis; type: ADME, organism-based; details: in vivo, read-out: Clast
[12] = Half life in CD-1 mouse at 90 mg/kg, po measured up to 8 hrs by LC-MS/MS analysis; type: ADME, organism-based; details: in vivo
[13] = target: Free fatty acid receptor 1 (Mus musculus) (UniProt Q76JU9); test: Agonist activity at GPR40 in mouse MIN6 cells assessed as fold increase in 3 mM glucose-mediated insulin secretion at 10 uM incubated for 2 hrs by ELISA relative to control; type: functional, cell-based
Free fatty acid receptor 1 (Mus musculus), sequence (Q76JU9 whole entry): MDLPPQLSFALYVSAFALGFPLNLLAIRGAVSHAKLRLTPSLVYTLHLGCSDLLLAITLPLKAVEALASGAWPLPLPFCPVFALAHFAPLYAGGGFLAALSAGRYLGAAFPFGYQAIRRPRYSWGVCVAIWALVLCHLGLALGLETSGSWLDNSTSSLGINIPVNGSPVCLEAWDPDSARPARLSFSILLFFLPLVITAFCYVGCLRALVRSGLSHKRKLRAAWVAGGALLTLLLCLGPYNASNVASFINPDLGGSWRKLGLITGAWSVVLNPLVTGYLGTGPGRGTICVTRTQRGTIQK

[14] = Cmax in CD-1 mouse at 10 mg/kg, po measured up to 8 hrs by LC-MS/MS analysis; type: ADME, organism-based; parameters: route oral, dose 10 mg/kg, time <=8; details: in vivo
[15] = Tmax in CD-1 mouse at 100 mg/kg, po measured up to 8 hrs by LC-MS/MS analysis; type: ADME, organism-based; details: in vivo
[16] = MRTlast in CD-1 mouse at 90 mg/kg, po measured up to 8 hrs by LC-MS/MS analysis; type: ADME, organism-based; details: in vivo
[17] = target: T3, Free fatty acid receptor 1 (Homo sapiens, UniProt O14842); test: Agonist activity at GPR40 (unknown origin) expressed in CHO cells assessed as increase in cAMP level incubated for 30 mins by cAMP-Glo assay; type: functional, cell-based
T3 sequence (O14842 whole entry): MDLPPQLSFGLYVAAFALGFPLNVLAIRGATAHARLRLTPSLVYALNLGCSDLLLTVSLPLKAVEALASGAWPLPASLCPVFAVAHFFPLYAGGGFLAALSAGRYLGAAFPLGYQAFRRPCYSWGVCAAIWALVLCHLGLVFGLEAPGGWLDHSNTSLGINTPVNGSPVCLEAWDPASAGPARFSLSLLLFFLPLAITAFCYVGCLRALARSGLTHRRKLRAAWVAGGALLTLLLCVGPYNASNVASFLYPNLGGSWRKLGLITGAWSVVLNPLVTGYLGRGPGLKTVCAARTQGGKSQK

[18] = AUC (0 to t) in CD-1 mouse at 90 mg/kg, po measured up to 8 hrs by LC-MS/MS analysis; type: ADME, organism-based; parameters: route oral, dose 90 mg/kg, time <=8; details: in vivo
[19] = system: STC1; test: Induction of GLP-1 secretion in […] STC1 cells at 30 uM after 1 hrs by ELISA; type: functional, cell-based
[20] = target: T3, Free fatty acid receptor 1; test: Agonist activity at GPR40 (unknown origin) expressed in CHO cells co-expressing luc2P/SRE (Gq) assessed as firefly luciferase activity at 10 uM incubated for 24 hrs by Bright-Glo based serum response element (SRE) luciferase reporter assay; type: functional, cell-based; details: filed as positive allosteric modulator
[21] = Half life in CD-1 mouse at 10 mg/kg, po measured up to 8 hrs by LC-MS/MS analysis; type: ADME, organism-based; details: in vivo
[22] = target: Free fatty acid receptor 1 (Mus musculus) (UniProt Q76JU9); test: Agonist activity at GPR40 in mouse MIN6 cells assessed as fold increase in 17 mM glucose-mediated insulin secretion at 1 to 10 uM incubated for 2 hrs in presence of GW1100 by ELISA relative to control; type: functional, cell-based; details: dose 1-10 µM
[23] = system: MIN6; test: Effect on BSA-PA conjugate-induced lipo-toxicity in mouse MIN6 cells assessed as caspase 3/7 activity at 50 uM incubated for 72 hrs by fluorescence assay; type: functional, cell-based
[24] = system: Mus musculus; test: Antidiabetic activity in C57BL/6J mouse assessed as reduction in plasma glucose level at 30 mg/kg, po pretreated 1 hr before glucose challenge measured up to 120 mins by Oral glucose tolerance test; type: functional; parameters: scale not given: the % may be the effect or the level left; details: 2 h
[25] = Cmax in CD-1 mouse at 90 mg/kg, po measured up to 8 hrs by LC-MS/MS analysis; type: ADME, organism-based; parameters: route oral, dose 90 mg/kg, time <=8; details: in vivo
[26] = Half life in CD-1 mouse at 30 mg/kg, po measured up to 8 hrs by LC-MS/MS analysis; type: ADME, organism-based; details: in vivo
[27] = Clast in CD-1 mouse at 10 mg/kg, po measured up to 8 hrs by LC-MS/MS analysis; type: ADME, organism-based; details: in vivo, read-out: Clast
[28] = Tlast in CD-1 mouse at 10 mg/kg, po measured up to 8 hrs by LC-MS/MS analysis; type: ADME, organism-based; details: in vivo

| concentration at 8 h [1] [ng/mL] | Tmax [3] [min] | EC50 [4] [µM] | solubility [5] | MRT last at 8 h [6] [h] | microsomal CLint [7] [µL/min/mg] | EC50 [8] [µM] | Tlast [9] [h] | microsomal CLint [10] [µL/min/mg] | concentration at 8 h [11] [ng/mL] | half-life [12] [min] | Activity [13] | Cmax [14] [ng/mL] | Tmax [15] [min] | MRT last at 8 h [16] [h] | EC50 [17] [µM] | AUC(0-t) at 8 h [18] [ng·h/mL] | Activity [20] | SMILES | Activity [2] | Activity [19] | also measured |
| --- | --- | --- | --- | --- | --- | --- | --- | --- | --- | --- | --- | --- | --- | --- | --- | --- | --- | --- | --- | --- | --- |
| 2680 | 19.8 | > 25 | Soluble | 1.24 | ≤ 4 | > 25 | 8 | 10.5 | 62 | 81.6 | inactive | 52900 | 26.4 | 2.31 | 7.53 | 186000 | Active | Cc1ccc(C)c(-c2cc3cc(CCC(=O)O)ccc3[nH]2)c1 | Non-Toxic | Active | half-life [21]: 144 min; Activity [22]: inactive; Activity [23]: inactive; Activity [24]: 14.4%; Cmax [25]: 65000 ng/mL; half-life [26]: 79.8 min; concentration at 8 h [27]: 1250 ng/mL; Tlast [28]: 8 h |
| 63 | 26.4 | > 25 | Soluble | 1.34 | ≤ 4 | > 25 | 8 | ≤ 4 | 189 | 84 | inactive | 3740 | 26.4 | 1.14 | 0.681 | 9620 | Active | Cc1cc(F)ccc1-c1cc2cc(CCC(=O)O)ccc2[nH]1 | Non-Toxic | Active | half-life [21]: 78 min; Activity [22]: inactive; Activity [23]: inactive; Activity [24]: 22.9%; Cmax [25]: 10300 ng/mL; half-life [26]: 69.6 min; concentration at 8 h [27]: 11 ng/mL; Tlast [28]: 8 h |
